Data reported in ChEMBL document CHEMBL1127117 (Bioorg Med Chem Lett, 1993).
Activity calls are given as the source filed them. The calls are words filed in the database; no cut-off is given here.

What was measured:
Mus musculus [1] = test: Compound was tested for inhibitory activity in oral mouse cholesterol biosynthesis assay at the dose of 6 mg/Kg; format: functional
Mus musculus [2] = test: Compound was tested for inhibitory activity in oral mouse cholesterol biosynthesis assay at the dose of 24 mg/Kg; format: functional
Mus musculus [3] = test: Compound was tested for inhibitory activity in oral mouse cholesterol biosynthesis assay at the dose of 24 mg/Kg; NA means not active; format: functional, organism-based
Mus musculus [4] = organism: Mus musculus; test: Compound was tested for inhibitory activity in oral mouse cholesterol biosynthesis assay; format: functional
Mus musculus [5] = test: Compound was tested for inhibitory activity in oral mouse cholesterol biosynthesis assay at the dose of 40 mg/Kg; format: functional

C=C(CCC12OC(C(=O)OCCC(C)C)C(O)(C(=O)O)C(C(=O)OCOC(C)=O)(O1)[C@H](OC(=O)/C=C/[C@@H](C)C[C@@H](C)CC)[C@H]2O)[C@@H](OC(C)=O)[C@H](C)Cc1ccccc1 (some centres undefined) was tested, and the inhibition in vivo at 6 mg/kg (Mus musculus [1]) was 13%.
In the case of C=CCOC(=O)C1(O)C(C(=O)OCCC(C)C)OC2(CCC(=C)[C@@H](OC(C)=O)[C@H](C)Cc3ccccc3)OC1(C(=O)O)[C@H](OC(=O)/C=C/[C@@H](C)C[C@@H](C)CC)[C@H]2O (some centres undefined), the inhibition in vivo at 24 mg/kg (Mus musculus [2]) is reported as 38%.
In the case of C=C(CCC12OC(C(=O)OCCC(C)C)C(O)(C(=O)OCC(=O)OC(C)(C)C)C(C(=O)O)(O1)[C@H](OC(=O)/C=C/[C@@H](C)C[C@@H](C)CC)[C@H]2O)[C@@H](OC(C)=O)[C@H](C)Cc1ccccc1 (some centres undefined), the inhibition (Mus musculus [3]) is reported as “inactive”.
With C=C(CCC12OC(C(=O)OCCC(C)C)C(O)(C(=O)OCC(=O)N(C)C)C(C(=O)O)(O1)[C@H](OC(=O)/C=C/[C@@H](C)C[C@@H](C)CC)[C@H]2O)[C@@H](OC(C)=O)[C@H](C)Cc1ccccc1 (some centres undefined) the inhibition in vivo at 24 mg/kg (Mus musculus [2]) was 12%.
C=C(CCC12OC(C(=O)OCCC(C)C)C(O)(C(=O)OCC(=O)OC)C(C(=O)O)(O1)[C@H](OC(=O)/C=C/[C@@H](C)C[C@@H](C)CC)[C@H]2O)[C@@H](OC(C)=O)[C@H](C)Cc1ccccc1 (some centres undefined) was tested, and the inhibition in vivo at 24 mg/kg (Mus musculus [2]) was 43%.
With C=C(CCC12OC(C(=O)OCCC(C)C)C(O)(C(=O)OCC(=O)c3ccc(Br)cc3)C(C(=O)O)(O1)[C@H](OC(=O)/C=C/[C@@H](C)C[C@@H](C)CC)[C@H]2O)[C@@H](OC(C)=O)[C@H](C)Cc1ccccc1 (some centres undefined) the inhibition in vivo at 24 mg/kg (Mus musculus [2]) was 7%.
C=C(CCC12OC(C(=O)OCCC(C)C)C(O)(C(=O)OCOC(C)=O)C(C(=O)O)(O1)[C@H](OC(=O)/C=C/[C@@H](C)C[C@@H](C)CC)[C@H]2O)[C@@H](OC(C)=O)[C@H](C)Cc1ccccc1 (some centres undefined) showed an ED50 (Mus musculus [4]) of 6 mg/kg.
Molecule C=C(CCC12OC(C(=O)OCCC(C)C)C(O)(C(=O)OCc3ccccc3)C(C(=O)O)(O1)[C@H](OC(=O)/C=C/[C@@H](C)C[C@@H](C)CC)[C@H]2O)[C@@H](OC(C)=O)[C@H](C)Cc1ccccc1 (some centres undefined) has an inhibition in vivo at 24 mg/kg (Mus musculus [2]) of 50%.
Work on C=C(CCC12OC(C(=O)OCCC(C)C)C(O)(C(=O)OCCCCCCCC)C(C(=O)O)(O1)[C@H](OC(=O)/C=C/[C@@H](C)C[C@@H](C)CC)[C@H]2O)[C@@H](OC(C)=O)[C@H](C)Cc1ccccc1 (some centres undefined) yielded an inhibition in vivo at 24 mg/kg (Mus musculus [2]) of 5%.
C=C(CCC12OC(C(=O)O)C(O)(C(=O)O)C(C(=O)O)(O1)[C@H](OC(=O)/C=C/[C@@H](C)C[C@@H](C)CC)[C@H]2O)[C@@H](OC(C)=O)[C@H](C)Cc1ccccc1 (some centres undefined) [ZARAGOZIC ACID A] gave an ED50 (Mus musculus [4]) of 100 mg/kg.
C=C(CCC12OC(C(=O)OCCC(C)C)C(O)(C(=O)O)C(C(=O)OCc3ccccc3)(O1)[C@H](OC(=O)/C=C/[C@@H](C)C[C@@H](C)CC)[C@H]2O)[C@@H](OC(C)=O)[C@H](C)Cc1ccccc1 (some centres undefined) was tested, and the inhibition (Mus musculus [3]) was “inactive”.
C=C(CCC12OC(C(=O)OCCC(C)C)C(O)(C(=O)OCOC(=O)C(C)(C)C)C(C(=O)O)(O1)[C@H](OC(=O)/C=C/[C@@H](C)C[C@@H](C)CC)[C@H]2O)[C@@H](OC(C)=O)[C@H](C)Cc1ccccc1 (some centres undefined) showed an ED50 (Mus musculus [4]) of 9 mg/kg.
In the case of C=CCOC(=O)C12OC(CCC(=C)[C@@H](OC(C)=O)[C@H](C)Cc3ccccc3)(OC(C(=O)OCCC(C)C)C1(O)C(=O)O)[C@H](O)[C@H]2OC(=O)/C=C/[C@@H](C)C[C@@H](C)CC (some centres undefined), the inhibition (Mus musculus [3]) is reported as “inactive”.
In the case of C=C(CCC12OC(C(=O)OCCC(C)C)C(O)(C(=O)O)C(C(=O)OC)(O1)[C@H](OC(=O)/C=C/[C@@H](C)C[C@@H](C)CC)[C@H]2O)[C@@H](OC(C)=O)[C@H](C)Cc1ccccc1 (some centres undefined), the inhibition (Mus musculus [3]) is reported as “inactive”.
With C=C(CCC12OC(C(=O)OCCC(C)C)C(O)(C(=O)OCC(=O)N(CC)CC)C(C(=O)O)(O1)[C@H](OC(=O)/C=C/[C@@H](C)C[C@@H](C)CC)[C@H]2O)[C@@H](OC(C)=O)[C@H](C)Cc1ccccc1 (some centres undefined) the inhibition in vivo at 24 mg/kg (Mus musculus [2]) was 15%.
For C=C(CCC12OC(C(=O)OCCC(C)C)C(O)(C(=O)OC)C(C(=O)O)(O1)[C@H](OC(=O)/C=C/[C@@H](C)C[C@@H](C)CC)[C@H]2O)[C@@H](OC(C)=O)[C@H](C)Cc1ccccc1 (some centres undefined), the ED50 (Mus musculus [4]) was 20 mg/kg.
Molecule C=C(CCC12OC(C(=O)OCCC(C)C)C(O)(C(=O)OCC)C(C(=O)O)(O1)[C@H](OC(=O)/C=C/[C@@H](C)C[C@@H](C)CC)[C@H]2O)[C@@H](OC(C)=O)[C@H](C)Cc1ccccc1 (some centres undefined) has an inhibition in vivo at 24 mg/kg (Mus musculus [2]) of 59%.
Molecule C=C(CCC12OC(C(=O)OCCC(C)C)C(O)(C(=O)O)C(C(=O)O)(O1)[C@H](OC(=O)/C=C/[C@@H](C)C[C@@H](C)CC)[C@H]2O)[C@@H](OC(C)=O)[C@H](C)Cc1ccccc1 (some centres undefined) has an inhibition in vivo at 40 mg/kg (Mus musculus [5]) of 61%.
With C=C(CCC12OC(C(=O)OCCC(C)C)C(O)(C(=O)OCCOC)C(C(=O)O)(O1)[C@H](OC(=O)/C=C/[C@@H](C)C[C@@H](C)CC)[C@H]2O)[C@@H](OC(C)=O)[C@H](C)Cc1ccccc1 (some centres undefined) the inhibition in vivo at 24 mg/kg (Mus musculus [2]) was 55%.
